Drawing on BindingDB's records for doi:10.1021/jm100158v (University of California, 2010), this text covers Ki for one molecule.

This experiment in a line: Inhibition of Escherichia coli K12 ADCS by spectrophotometry.

`Cc1ccc(C(=O)N[C@@H](CCCCNC(=O)c2cccc(OCC(=O)O)c2)C(=O)N[C@@H](Cc2cccc(Cl)c2)C(N)=O)c([N+](=O)[O-])c1O` [2-(3-((S)-6-((S)-1-amino-3-(3-chlorophenyl)-1-oxopropan-2-ylamino)-5-(3-hydroxy-4-methyl-2-nitrobenzamido)-6-oxohexylcarbamoyl)phenoxy)acetic acid] yielded a Ki of 770 µM.
